Marks after values point to notes of the source that are not given here.
Experiments:
Assay type in all cases: in vivo
[1] = system: Phytophthora infestans; conditions: 200 ppm test suspension; tomato seedlings
[2] = system: Puccinia recondita f. sp. tritici; experiment: Test H: wheat leaf rust, spray on wheat seedlings the day before inoculation; conditions: sprayed before inoculation
How it was run: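 Wheat seedlings sprayed to run-off with compound suspensions (acetone/water with surfactant; 200 ppm ≈ 500 g/ha, or 40 ppm), inoculated next day with rust spores. Plants kept 24 h in saturated atmosphere at 20 °C, then 6 days in a 20 °C growth chamber before visual disease rating.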

[3] = system: Alternaria solani; experiment: Test B: tomato early blight, spray on tomato seedlings the day before inoculation
How it was run: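 Tomato seedlings sprayed to run-off with 200 ppm suspension (40 ppm where asterisked), inoculated next day with Alternaria solani spores. Kept 48 h at 27 °C in saturated atmosphere, then 5 days at 20 °C before visual disease rating.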

[4] = system: Erysiphe graminis f. sp. tritici; experiment: Test I: wheat powdery mildew, spray on wheat seedlings the day before inoculation
How it was run: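 Wheat seedlings sprayed to run-off with compound at 200 ppm (40 ppm where marked; 200 ppm ≈ 500 g/ha) in acetone/water with 250 ppm surfactant. Inoculated next day with E. graminis spore dust; visual disease rating after 7 days at 20° C.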

[5] = system: Rhizoctonia solani; experiment: Test D: turf brown patch, spray on creeping bent grass seedlings the day before inoculation; conditions: 200 ppm test suspension
Description: General protocol for preparing test suspensions for Tests A-I: the test compounds were first dissolved in acetone in an amount equal to 3% of the final volume and then suspended at the desired concentration (in ppm) in acetone and purified water (50/50 mix by volume) containing 250 ppm of the surfactant Trem® 014 (polyhydric alcohol esters). The resulting test suspensions were then used in Tests A-I. Spraying a 200 ppm test suspension to the point of run-off on the test plants was the equivalent of a rate of 500 g/ha. […] (An asterisk “*” next to the rating value indicates a 40 ppm test suspension was used.) The test suspension was sprayed to the point of run-off on creeping bent grass (Agrostis sp.) seedlings. The following day, the seedlings were inoculated with a bran and mycelial slurry of Rhizoctonia solani (the causal agent of turf brown patch) and incubated in a saturated atmosphere at 27° C. for 48 h, and then moved to a growth chamber at 27° C. for 3 days, after which time disease ratings were made. […] A dash (-) indicates no test results. All results are for 200 ppm except where followed by an asterisk “*”, which indicates a 40 ppm.

[6] = system: Septoria nodorum; experiment: Test E: Septoria glume blotch, spray on wheat seedlings the day before inoculation
How it was run: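 Compounds in acetone/water (50/50) with 250 ppm Trem 014 surfactant, sprayed to run-off on wheat seedlings the day before Septoria nodorum inoculation. Tested at 200 ppm (equivalent to 500 g/ha) unless marked 40 ppm.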

[7] = system: Botrytis cinerea; experiment: Test A: tomato Botrytis, spray on tomato seedlings the day before inoculation
How it was run: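 Tomato seedlings sprayed to run-off with compound suspension (200 ppm, ≈500 g/ha; some at 40 ppm) in acetone/water with 250 ppm Trem 014, inoculated next day with Botrytis cinerea spores. Held 48 h saturated at 20 °C, then 3 days at 24 °C; disease rated visually.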

[8] = system: Septoria tritici; experiment: Test F: wheat leaf blotch, spray on wheat seedlings the day before inoculation
How it was run: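 Wheat seedlings sprayed to run-off with 200 ppm (≈500 g/ha) or 40 ppm suspension in acetone/water with 250 ppm Trem 014. Next day inoculated with Septoria tritici spores, held 48 h saturated at 24° C, then 19 days at 20° C before visual disease rating.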

[9] = system: Puccinia recondita f. sp. tritici; experiment: Test G: wheat leaf rust, spray on wheat seedlings after inoculation (curative); conditions: sprayed after inoculation
How it was run: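 Curative test: wheat seedlings inoculated with P. recondita spores, held 24 h saturated at 20 °C then 2 days at 20 °C, then sprayed to run-off with compound suspension (200 ppm ≈ 500 g/ha; asterisk = 40 ppm) in acetone/water with 250 ppm surfactant. Visual disease rating after 4 further days at 20 °C.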

[10] = 40 ppm test suspension (asterisk)

Compound | Test C rating (100 = 100% disease control, 0 = no disease control) [1] [%] | Test H rating (100 = 100% disease control, 0 = no disease control) ([2]; 200 ppm test suspension) [%] | Test B rating (100 = 100% disease control, 0 = no disease control) ([3]; 200 ppm test suspension) [%] | Test I rating (100 = 100% disease control, 0 = no disease control) ([4]; 200 ppm test suspension) [%] | Test D rating (100 = 100% disease control, 0 = no disease control) [5] [%] | Test E rating (100 = 100% disease control, 0 = no disease control) ([6]; 200 ppm test suspension) [%] | Test A rating (100 = 100% disease control, 0 = no disease control) ([7]; 200 ppm test suspension) [%] | Test B rating (100 = 100% disease control, 0 = no disease control) [3, 10] | Test F rating (100 = 100% disease control, 0 = no disease control) ([8]; 200 ppm test suspension) [%] | Test G rating (100 = 100% disease control, 0 = no disease control) ([9]; 200 ppm test suspension) [%] | Test H rating (100 = 100% disease control, 0 = no disease control) [2, 10] | Test G rating (100 = 100% disease control, 0 = no disease control) [9, 10] | Test I rating (100 = 100% disease control, 0 = no disease control) [4, 10] | Test F rating (100 = 100% disease control, 0 = no disease control) [8, 10] | Test E rating (100 = 100% disease control, 0 = no disease control) [6, 10] | Test A rating (100 = 100% disease control, 0 = no disease control) [7, 10]
Cc1noc(=O)c(-c2ccc(F)cc2F)c1-c1ccc(Cl)cc1 [Compound 13] | 0 | 91 | 9 | 99 | 0 | 0 | 0 |  |  |  |  |  |  |  |  | 
Cc1noc(=O)c(-c2c(F)ccc(F)c2F)c1-c1ccc(Cl)cc1 [Compound 6] | 0 | 41 | 99 | 96 | 0 | 0 | 99 |  |  |  |  |  |  |  |  | 
Cc1noc(=O)c(-c2c(F)cc(F)cc2F)c1-c1ccc(Br)cc1 [Compound 10] | 0 | 95 | 100 | 99 | 90 | 0 | 98 |  |  |  |  |  |  |  |  | 
Cc1noc(=O)c(-c2c(F)cccc2F)c1-c1ccc(Br)cc1 [Compound 15] | 0 | 91 | 96 | 98 | 0 | 0 | 0 |  |  |  |  |  |  |  |  | 
Cc1noc(=O)c(-c2c(F)cc(F)cc2F)c1-c1ccc(F)cc1 [Compound 11] | 0 | 98 | 99 | 100 | 26 | 64 | 100 |  |  |  |  |  |  |  |  | 
Cc1noc(=O)c(-c2c(F)cc(F)cc2F)c1-c1cccc(F)c1 [Compound 5] | 0 | 0 | 54 | 20 | 16 | 0 | 0 |  |  |  |  |  |  |  |  | 
Cc1ccc(-c2c(C)noc(=O)c2-c2c(F)cc(F)cc2F)cc1 [Compound 9] | 0 | 96 | 46 | 96 | 99 | 0 | 90 |  |  |  |  |  |  |  |  | 
Cc1noc(=O)c(-c2c(F)cc(F)cc2F)c1-c1ccc(C(F)(F)F)cc1 [Compound 12] | 0 | 0 |  | 98 | 0 | 0 | 0 | 99* % |  |  |  |  |  |  |  | 
Cc1noc(=O)c(-c2ccc(F)cc2Cl)c1-c1ccc(Br)cc1 [Compound 14] | 0 | 0 | 5 | 0 | 0 | 0 | 0 |  |  |  |  |  |  |  |  | 
Cc1noc(=O)c(-c2c(F)cccc2Cl)c1-c1ccc(Cl)cc1 [Compound 8] | 0 | 98 | 99 | 99 | 52 | 0 | 100 |  |  |  |  |  |  |  |  | 
Cc1noc(=O)c(-c2cccc(F)c2)c1-c1c(F)cccc1F [Compound 4] | 8 | 0 |  | 0 | 0 | 0 | 0 |  | 0 |  |  |  |  |  |  | 
Cc1noc(=O)c(-c2cccc(F)c2)c1-c1ccccc1 [Compound 1] | 0 | 0 |  | 0 | 0 | 0 | 0 |  | 37 |  |  |  |  |  |  | 
Cc1noc(=O)c(-c2ccc(Cl)cc2)c1-c1c(F)cccc1F [Compound 2] | 17 | 0 |  | 92 | 0 | 0 | 47 |  | 97 |  |  |  |  |  |  | 
Cc1noc(=O)c(-c2c(F)cccc2F)c1-c1ccc(Cl)cc1 [Compound 7] | 0 | 99 | 100 | 100 | 75 | 0 | 100 |  |  |  |  |  |  |  |  | 
COc1cc(OC)cc(-c2cc(=O)oc(C)c2-c2ccc(F)cc2Cl)c1 [Compound 56] |  | 100 | 99 | 100 |  | 99 | 94 |  | 100 | 100 |  |  |  |  |  | 
Cc1oc(=O)c(-c2ccccc2)c(-c2ccccc2Cl)c1-c1ccccc1F [Compound 30] |  |  |  |  |  |  |  | 0* % |  |  | 91* % | 0* % | 0* % | 94* % | 0* % | 99* %

Reference: patent US20120329787A1, “FUNGICIDAL PYRANONES AND OXAZINONES” (E.I. DU PONT DE NEMOURS AND COMPANY, priority 2011, published 2012)
